Laboratory results: patent US6482255B1, “Disazodyes for ink jet printing” (Avecia Limited, priority 1997, dated 2002)

Test: Solubility of dye or dye composition in water
Type: physicochemical
Method: The method of Example 1 was repeated except that the condensation reaction with ethanolamine in stage (iv) was stopped after 2.5 hours. The product was a mixture of Dye (A), Dye (B) and Dye (C) in relative proportions 43:35:22 by weight. This dye mixture has a solubility of 10% in water at 20° C. compared to a solubility of 3% for Dye (A) alone under the same conditions.
The ratio of Dyes (A), (B) and (C) in Example 4 may be varied by altering the time and temperature of the ethanolamine condensation step (Example 1, step (iv)). The solubility of a variety of dye compositions in water at 20° C. and pH 9.5 is shown in Table 2 below together with optical density, light fastness (ΔE after 50 hours) and wet-fastness results of prints prepared from these compositions. The prints were prepared by printing an ink formed by dissolving 2.5 parts of each composition in 97.5 parts of a mixture consisting of 88 parts water, 5 parts thiodiglycol, 5 parts 2-pyrrolidone and 2 parts Surfynol 465™ (a non-ionic surfactant) onto the substrate shown in the third column of Table 2 using a Canon 4300 ink jet printer.

Compound: CNCCCNc1nc(NCCO)nc(Nc2ccc(/N=N/c3c(N)ccc4cc(S(=O)(=O)O)cc(O)c34)c(S(=O)(=O)O)c2)n1 [Dye (1)]
- solubility in water (water at 20° C.): 3%
- Solubility (%) (water at 20° C. and pH 9.5): 3%
